The values below come from patent US20240025919A1, “AZA-TETRACYCLIC OXAZEPINE COMPOUNDS AND USES THEREOF” (Genentech, Inc., priority 2022, published 2024).

Assay [1] deals with T1, KRAS WT (Homo sapiens (Human), UniProt P01116). Briefly: KRAS WT Biochemical Assay, BODIPY-GDP Exchange TR-FRET (Example 502; 0.06 nM KRAS WT, 15 nM GDP, 300 nM SOS1, 120-minute incubation). The following applies: read-out: KRas HTRF IC50. The method in brief: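 IC50 from a 4-parameter Hill fit of percent inhibition, itself the TR-FRET 520/490 nm ratio scaled between DMSO and a fully inhibiting control. Reaction: 300 nM SOS1 and 300 nM BODIPY-GDP added to preformed 0.06 nM KRAS WT/15 nM GDP/Tb-streptavidin complex; 120 min incubation; pH 7.5 HEPES, MgCl2, DTT.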
A general note: Time-resolved FRET reads energy transfer from a long-lived donor to a nearby acceptor.

For another assay, the target named is KRAS G12D (Homo sapiens (Human), UniProt P01116, G12D). Briefly: KRAS G12D LoEnz Biochemical Assay, BODIPY-GDP Exchange TR-FRET (SOS1-mediated nucleotide exchange). Conditions: read-out: KRas (G12D) GDP HTRF IC50.
In assay [2] the target is T1, KRAS WT. As to the kind of experiment: KRAS WT Biochemical Assay, BODIPY-GDP Exchange TR-FRET (Example 501; 3 nM KRAS WT, 3 nM SOS1, 60-minute incubation). The following applies: read-out: KRas(wt) GDP HTRF IC50. The method in brief:
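SOS1-mediated exchange assay: 3 nM biotin-KRAS WT with terbium-streptavidin, started with 3 nM SOS1 and 300 nM BODIPY-GDP, HEPES pH 7.5 with MgCl2. TR-FRET (520/490 nm) read after 60 min; normalized to DMSO and full-inhibition control, IC50 from 4-parameter Hill fit.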

T1 sequence (P01116-2 other isoform, or with tags, fused parts or gaps): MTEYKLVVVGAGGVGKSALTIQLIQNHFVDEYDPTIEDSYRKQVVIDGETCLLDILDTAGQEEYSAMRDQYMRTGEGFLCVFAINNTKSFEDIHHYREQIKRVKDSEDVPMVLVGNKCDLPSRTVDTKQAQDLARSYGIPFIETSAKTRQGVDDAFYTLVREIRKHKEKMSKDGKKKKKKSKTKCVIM
Chain of KRAS G12D (P01116-2 other isoform, or with tags, fused parts or gaps G12D): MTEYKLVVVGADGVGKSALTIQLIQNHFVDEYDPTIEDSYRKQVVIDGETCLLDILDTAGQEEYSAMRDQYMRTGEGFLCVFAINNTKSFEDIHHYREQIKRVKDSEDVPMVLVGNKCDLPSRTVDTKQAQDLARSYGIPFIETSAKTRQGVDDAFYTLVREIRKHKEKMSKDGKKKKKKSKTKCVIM

Broadly, the IC50 is the concentration at which inhibition is half-maximal. Regarding `C[C@@H]1Oc2nc(-c3cc(N)cc(F)c3C(F)(F)F)c(F)c3nc(OC[C@@]45CCCN4C[C@H](F)C5)nc(c23)N2C[C@H]3CC[C@H](N3)[C@@H]12` [Compound 17, 3-fluoro-5-((5S,5aS,6S,9R)-1-fluoro-12-(((2R,7aS)-2-fluorotetrahydro-1H-pyrrolizin-7a(5H)-yl)methoxy)-5-methyl-5a,6,7,8,9,10-hexahydro-5H-4-oxa-3,10a,11,13,14-pentaaza-6,9-methanonaphtho[1,8-ab]heptalen-2-yl)-4-(trifluoromethyl)aniline], the IC50 on KRAS WT [1] is 1.05 nM; on KRAS G12D it was 0.133 nM; at KRAS WT [2], 0.559 nM.
On the same counts, the results for `C=C1CN2CCC[C@@]2(COc2nc3c4c(nc(-c5cc(O)cc6cccc(CC)c56)c(F)c4n2)O[C@@H](C)[C@@H]2[C@@H]4CC[C@H](CN32)N4)C1` [Compound 80] are 3.48 nM, 0.068 nM and 3.39 nM.
The corresponding values for `CCc1cccc2cc(O)cc(-c3nc4c5c(nc(OC[C@@]67CCCN6C[C@H](F)C7)nc5c3F)N3C[C@H]5CC[C@H](N5)[C@H]3[C@H](C)O4)c12` [Compound 10, 5-ethyl-4-((5S,5aS,6S,9R)-1-fluoro-12-(((2R,7aS)-2-fluorotetrahydro-1H-pyrrolizin-7a(5H)-yl)methoxy)-5-methyl-5a,6,7,8,9,10-hexahydro-5H-4-oxa-3,10a,11,13,14-pentaaza-6,9-methanonaphtho[1,8-ab]heptalen-2-yl)naphthalen-2-ol] are 13.3 nM, 0.082 nM and 6.46 nM.
On the same counts, the results for `C#Cc1c(F)ccc2cc(O)cc(-c3nc4c5c(nc(OC[C@@]67CCCN6C[C@H](F)C7)nc5c3F)N3C[C@H]5CC[C@H](N5)[C@H]3[C@H](C)O4)c12` [Compound 7, 5-Ethynyl-6-fluoro-4-((5S,5aS,6S,9R)-1-fluoro-12-(((2R,7aS)-2-fluorotetrahydro-1H-pyrrolizin-7a(5H)-yl)methoxy)-5-methyl-5a,6,7,8,9,10-hexahydro-5H-4-oxa-3,10a,11,13,14-pentaaza-6,9-methanonaphtho[1,8-ab]heptalen-2-yl)naphthalen-2-ol] are 0.288 nM, 0.059 nM and 0.296 nM.
Consider `C[C@@H]1Oc2nc(-c3[nH]c(=O)cc4ccccc34)c(F)c3nc(OC[C@@]45CCCN4C[C@H](F)C5)nc(c23)N2C[C@H]3CC[C@H](N3)[C@@H]12` [Compound 105, 1-((5S,5aS,6S,9R)-1-Fluoro-12-(((2R,7aS)-2-fluorotetrahydro-1H-pyrrolizin-7a(5H)-yl)methoxy)-5-methyl-5a,6,7,8,9,10-hexahydro-5H-4-oxa-3,10a,11,13,14-pentaaza-6,9-methanonaphtho[1,8-ab]heptalen-2-yl)isoquinolin-3(2H)-one], for which the half-inhibitory concentration (IC50) was found to be 9700 nM at KRAS WT [1] and 141 nM on KRAS G12D.
On the same counts, the results for `Cc1c(F)c(N)cc(-c2nc3c4c(nc(OC[C@@H]5CC[C@H]6C[C@@H](F)CN56)nc4c2F)N2C[C@H]4CC[C@H](N4)[C@H]2[C@H](C)O3)c1C(F)(F)F` (single isomer, unassigned) [152 (isomer 1)] are 15.7 nM and 0.1 nM.
Consider `Cc1c(F)c(N)cc(-c2nc3c4c(nc(OC[C@]56CCCN5C[C@H](F)[C@@H]6F)nc4c2F)N2C[C@H]4CC[C@H](N4)[C@H]2[C@H](C)O3)c1C(F)(F)F` (single isomer, unassigned) [143 (isomer 1)], for which the results for the 50% inhibitory concentration (IC50) on KRAS WT [1] and at KRAS G12D were 28.1 nM and 0.22 nM, respectively.
On the same counts, the results for `C[C@@H]1Oc2nc(-c3cccc4sc(N)nc34)c(F)c3nc(OC[C@@]45CCCN4C[C@H](F)C5)nc(c23)N2C[C@H]3CC[C@H](N3)[C@@H]12` [Compound 116, 4-((5S,5aS,6S,9R)-1-fluoro-12-(((2R,7aS)-2-fluorotetrahydro-1H-pyrrolizin-7a(5H)-yl)methoxy)-5-methyl-5a,6,7,8,9,10-hexahydro-5H-4-oxa-3,10a,11,13,14-pentaaza-6,9-methanonaphtho[1,8-ab]heptalen-2-yl)benzo[d]thiazol-2-amine] are 213 nM and 2.41 nM.
On the same counts, the results for `Cc1c(F)c(N)cc(-c2nc3c4c(nc(OCC5CCC6CN(C)C(=O)CN56)nc4c2F)N2C[C@H]4CC[C@H](N4)[C@H]2[C@H](C)O3)c1C(F)(F)F` (mixture of isomers) [Compound 124, 6-((((5S,5aS,6S,9R)-2-(5-Amino-4-fluoro-3-methyl-2-(trifluoromethyl)phenyl)-1-fluoro-5-methyl-5a,6,7,8,9,10-hexahydro-5H-4-oxa-3,10a,11,13,14-pentaaza-6,9-methanonaphtho[1,8-ab]heptalen-12-yl)oxy)methyl)-2-methylhexahydropyrrolo[1,2-a]pyrazin-3(4H)-one] are 619 nM and 1.74 nM.
The corresponding values for `C[C@@H]1Oc2nc(-c3cc(N)ccc3C(C)(C)C)c(F)c3nc(OC[C@@]45CCCN4C[C@H](F)C5)nc(c23)N2C[C@H]3CC[C@H](N3)[C@@H]12` [Compound 117, 4-(tert-butyl)-3-((5S,5aS,6S,9R)-1-fluoro-12-(((2R,7aS)-2-fluorotetrahydro-1H-pyrrolizin-7a(5H)-yl)methoxy)-5-methyl-5a,6,7,8,9,10-hexahydro-5H-4-oxa-3,10a,11,13,14-pentaaza-6,9-methanonaphtho[1,8-ab]heptalen-2-yl)aniline] are 638 nM and 4.84 nM.
As to `Cc1c(F)c(N)c(F)c(-c2nc3c4c(nc(OC[C@@]56CCCN5C[C@H](F)C6)nc4c2F)N2C[C@H]4CC[C@H](N4)[C@H]2[C@H](C)O3)c1C(F)(F)F` [Compound 91, 2,6-Difluoro-3-((5S,5aS,6S,9R)-1-fluoro-12-(((2R,7aS)-2-fluorotetrahydro-1H-pyrrolizin-7a(5H)-yl)methoxy)-5-methyl-5a,6,7,8,9,10-hexahydro-5H-4-oxa-3,10a,11,13,14-pentaaza-6,9-methanonaphtho[1,8-ab]heptalen-2-yl)-5-methyl-4-(trifluoromethyl)aniline], the 50% inhibitory concentration (IC50) worked out at 5.71 nM at KRAS WT [1] and 0.182 nM on KRAS G12D.
The corresponding values for `Cc1c(F)c(N)cc(-c2nc3c4c(nc(OC[C@]56COC[C@@H]5CCN6C)nc4c2F)N2C[C@H]4CC[C@H](N4)[C@H]2[C@H](C)O3)c1C(F)(F)F` (single isomer, unassigned) [134 (isomer 2)] are 38.1 nM and 0.19 nM.
The corresponding values for `Cc1c(F)c(N)cc(-c2nc3c4c(nc(OC[C@H]5[C@@H](O)CCN5C)nc4c2F)N2C[C@H]4CC[C@H](N4)[C@H]2[C@H](C)O3)c1C(F)(F)F` [Compound 162, (2S,3S)-2-((((5S,5aS,6S,9R)-2-(5-Amino-4-fluoro-3-methyl-2-(trifluoromethyl)phenyl)-1-fluoro-5-methyl-5a,6,7,8,9,10-hexahydro-5H-4-oxa-3,10a,11,13,14-pentaaza-6,9-methanonaphtho[1,8-ab]heptalen-12-yl)oxy)methyl)-1-methylpyrrolidin-3-ol] are 41.3 nM and 0.13 nM.
The corresponding values for `Cc1cc(N)c(F)c(-c2nc3c4c(nc(OC[C@@H]5CC[C@H]6COCCN65)nc4c2F)N2C[C@H]4CC[C@H](N4)[C@H]2[C@H](C)O3)c1C(F)(F)F` [Compound 97, 2-Fluoro-3-((5S,5aS,6S,9R)-1-fluoro-12-(((6S,8aS)-hexahydro-1H-pyrrolo[2,1-c][1,4]oxazin-6-yl)methoxy)-5-methyl-5a,6,7,8,9,10-hexahydro-5H-4-oxa-3,10a,11,13,14-pentaaza-6,9-methanonaphtho[1,8-ab]heptalen-2-yl)-5-methyl-4-(trifluoromethyl)aniline] are 43.7 nM and 0.37 nM.
`Cc1c(F)c(N)c(F)c(-c2nc3c4c(nc(OC[C@@H]5CC[C@H]6COCCN65)nc4c2F)N2C[C@H]4CC[C@H](N4)[C@H]2[C@H](C)O3)c1C(F)(F)F` [Compound 96, 2,6-Difluoro-3-((5S,5aS,6S,9R)-1-fluoro-12-(((6S,8aS)-hexahydro-1H-pyrrolo[2,1-c][1,4]oxazin-6-yl)methoxy)-5-methyl-5a,6,7,8,9,10-hexahydro-5H-4-oxa-3,10a,11,13,14-pentaaza-6,9-methanonaphtho[1,8-ab]heptalen-2-yl)-5-methyl-4-(trifluoromethyl)aniline]: the half-maximal inhibitory concentration (IC50) came out at 75.8 nM on KRAS WT [1] and 0.433 nM at KRAS G12D.
As to `C[C@@H]1Oc2nc(-c3cc(N)c(F)c(F)c3C(F)(F)F)c(F)c3nc(OCC45CCN4CC(F)(F)C5)nc(c23)N2C[C@H]3CC[C@H](N3)[C@@H]12` (stereo partly drawn) [Compound 155, 5-((5S,5aS,6S,9R)-12-((3,3-difluoro-1-azabicyclo[3.2.0]heptan-5-yl)methoxy)-1-fluoro-5-methyl-5a,6,7,8,9,10-hexahydro-5H-4-oxa-3,10a,11,13,14-pentaaza-6,9-methanonaphtho[1,8-ab]heptalen-2-yl)-2,3-difluoro-4-(trifluoromethyl)aniline], the IC50 is 31.5 nM on KRAS WT [1] and 0.22 nM at KRAS G12D.
The corresponding values for `Cc1c(F)c(N)cc(-c2nc3c4c(nc(OC[C@@H]5CC[C@H]6COCCN65)nc4c2F)N2C[C@H]4CC[C@H](N4)[C@H]2[C@H](C)O3)c1Cl` [Compound 111, 4-Chloro-2-fluoro-5-((5S,5aS,6S,9R)-1-fluoro-12-(((6S,8aS)-hexahydro-1H-pyrrolo[2,1-c][1,4]oxazin-6-yl)methoxy)-5-methyl-5a,6,7,8,9,10-hexahydro-5H-4-oxa-3,10a,11,13,14-pentaaza-6,9-methanonaphtho[1,8-ab]heptalen-2-yl)-3-methylaniline] are 108 nM and 0.31 nM.
